Data published in patent publication US6475801B1, “Anticoagulant and hemanalysis method” (Sysmex Corporation, priority 1998, dated 2002).

What was measured:
[1] = tested on: platelets; experiment: Change with time in the mean platelet volume (MPV); format: cell-based, human; conditions: FIG. 2
Description: Blood samples to which CTAD of the present invention or EDTA-2K was added were compared with regard to change with time in the size of platelets.

[2] = tested on: platelets; experiment: Examination on EDTA-dependant pseudothrombocytopenia (platelet counting); format: cell-based, human; conditions: FIG. 1
Description: Blood samples to which CTAD of the present invention or EDTA-2K was added were subjected to the platelet counting in order to compare them with regard to the EDTA-dependant Pseudothrombocytopenia.

[3] = tested on: platelets; experiment: Examination on cold agglutination (platelet counting after cold storage); format: cell-based, human
Description: Blood samples to which CTAD of the present invention or EDTA-2K was added were subjected to the platelet counting in order to compare them with regard to cold agglutination (the pseudothrombocytopenia in cold storage). […]

[4] = tested on: blood coagulation; experiment: Blood coagulation tests (CA-1000), Example 1 A; set-up: species or system human; conditions: mean of four normal samples
Source text: Blood was collected into test tubes containing the anticoagulant (CTAD) prepared as above and subjected to blood cell count tests (leukocyte count (WBC), ratios of leukocytic components (neutrophil ratio (NEUT%), lymphocyte ratio (LYMPH%), monocyte ratio (MONO%), eosinophil ratio (EOSI%) and basophil ratio (BASO%)), erythrocyte count (RBC), hemoglobin concentration (Hgb), hematocrit (Hct), MCV, MCH, MCHC and platelet count (PLT))(used counter: SE-9000™ produced by Sysmex Corporation, Japan) and coagulation tests (prothrombin time (PT), activated partial thromboplastin time (APTT), fibrinogen determination (Fbg))(used tester:CA-1000 produced by Sysmex Corporation, Japan).
EDTA-2K (Venoject II™ or 5 ml produced by Terumo), 5 mg, was used as a control for the blood cell count tests and a 3.8% solution of sodium citrate (3.8% solution of sodium citrate for 5 ml produced by Terumo, Japan), 0.5 ml, was used as a control for the blood coagulation tests, respectively, in place of the above anticoagulant.
The tests were conducted with four normal samples, and mean values are calculated.

Compound | change with time in the size of platelets (mean platelet volume) [1] | change with time in the number of platelets [2] | decrease of platelets in cold storage ([3]; 4° C., eight hours after collected) | PLT (platelet count) ([3]; 37° C. (control)) | PLT (platelet count) ([3]; preserved at 4° C., examined eight hours after collected) | APTT (activated partial thromboplastin time) [4] [s] | Fbg (fibrinogen determination) [4] [s] | PT (prothrombin time) [4] [s]
O=C([O-])CN(CCN(CC(=O)O)CC(=O)O)CC(=O)[O-].[K+].[K+] [EDTA-2K] | grew in size with time | decreased with time | Platelets decreased | 17.6 ×10^4 | 9.0 ×10^4 |  |  | 
O=C([O-])CC(O)(CC(=O)[O-])C(=O)[O-].[Na+].[Na+].[Na+] [sodium citrate] |  |  |  |  |  | 28.6 | 9.8 | 9.5
